Laboratory results as given in patent US20260234136A1, “ISOXAZOLIDINES AS RIPK1 INHIBITORS AND USE THEREOF” (GENZYME CORPORATION, priority 2023, published 2026).
Values after ≈ are worked out from the molar mass of the structure shown.

Assays:
[1] = physchem; details: 50 mM phosphate buffer, 25 °C, pH 7.4, aqueous buffer, thermodynamic from solid
[2] = tested on: U937 cells; assay: Cellular assay in U937 cells to measure the activity of RIPK1-inhibitors on cell death (necroptosis); type: cell-based; details: Homo sapiens, U-937, 50 μM zVAD.fmk and 100 ng/ml recombinant human TNFα, overnight (18 to 24 hrs), MTS readout
Method: Absorbance of formazan was read at 490 nm. The inhibitory activity of the test compound was quantified in a concentration response curve (CRC) experiment.
Compounds were obtained as 10 mM stock solutions and were diluted 1 to 10 volumes with DMSO to yield a 1 mM solution. From this solution 2 μl were diluted with 998 μl growth medium.
U937 cells were cultured in RPMI1640 Glutamax and 10% heat inactivated FBS. […] 50 μl of compound dilutions, as described in Cellular assay in U937 cells, were added and the cell suspension incubated overnight (18 to 24 hrs) at 37° C., 5% CO2 in a humidified atmosphere (95% rH).
CellTiter 96 Aqueous reagent was mixed (100 μl PMS (phenazine methosulfate) solution/2 ml MTS (3-(4,5-[…])-5-(3-carboxymethoxyphenyl)-2-(4-sulfophenyl)-2H-tetrazolium, inner salt) solution) and 20 μl were added per well. After 4 hrs incubation at 37° C. (5% CO2 95% rH) optical density was measured at 490 nm on a microplate reader (Tecan Infinite M1000).
The % inhibition is expressed as percentage of the maximal inhibition value obtained in the absence of TNFα/zVAD.fmc.

SMILES | solubility at 16 h [1] [µM] | IC50 [2] [nM]
Cc1nccn1-c1ccnc(N2CCC(C(=O)N3OCC[C@H]3c3cnccn3)CC2)n1 [Example 30, (S)-(1-(4-(2-methyl-1H-imidazol-1-yl)pyrimidin-2-yl)piperidin-4-yl)(3-(pyrazin-2-yl)isoxazolidin-2-yl)methanone] | > 1190 | 3
O=C(C1CCN(c2ncnc(-c3nccs3)n2)CC1)N1OCC[C@H]1c1cnccn1 [Example 14, [(3S)-3-pyrazin-2-ylisoxazolidin-2-yl]-[1-(4-thiazol-2-yl-1,3,5-triazin-2-yl)-4-piperidyl]methanone] | > 1180 | 9
Cc1cncc([C@@H]2CCON2C(=O)C2CCN(c3ncc(F)c(N4CCC5(CC5)C4=O)n3)CC2)c1 [Example 103, 5-[5-fluoro-2-[4-[(3S)-3-(5-methylpyridin-3-yl)-1,2-oxazolidine-2-carbonyl]piperidin-1-yl]pyrimidin-4-yl]-5-azaspiro[2.4]heptan-4-one] | > 1040 | 6
Cc1nc([C@@H]2CCON2C(=O)C2CCN(c3ncnc(-n4ccnc4C)n3)CC2)cs1 [Example 23, [1-[4-(2-methylimidazol-1-yl)-1,3,5-triazin-2-yl]-4-piperidyl]-[(3S)-3-(2-methylthiazol-4-yl)isoxazolidin-2-yl]methanone] | > 1140 | 1
O=C(C1CCN(c2ncc(F)c(-c3ncco3)n2)CC1)N1OCC[C@H]1c1cnccn1 [Example 12, [1-(5-fluoro-4-oxazol-2-yl-pyrimidin-2-yl)-4-piperidyl]-[(3S)-3-pyrazin-2-ylisoxazolidin-2-yl]methanone] | > 1180 | 1
Cc1ccc([C@@H]2CCON2C(=O)C2CCN(c3nccc(N4CCCC4=O)n3)CC2)cn1 [Example 81, 1-[2-[4-[(3S)-3-(6-methylpyridin-3-yl)-1,2-oxazolidine-2-carbonyl]piperidin-1-yl]pyrimidin-4-yl]pyrrolidin-2-one] | > 1150 | 52
O=C(C1CCN(c2ncc(F)c(N3CCC4(CC4)C3=O)n2)CC1)N1OCC[C@H]1c1cncc(F)c1 [Example 104, 5-[5-fluoro-2-[4-[(3S)-3-(5-fluoropyridin-3-yl)-1,2-oxazolidine-2-carbonyl]piperidin-1-yl]pyrimidin-4-yl]-5-azaspiro[2.4]heptan-4-one] | > 1030 | 2
O=C1CCCN1c1ccnc(N2CCC(C(=O)N3OCC[C@H]3c3cncc(F)c3)CC2)n1 [Example 46, 1-[2-[4-[(3S)-3-(5-fluoropyridin-3-yl)-1,2-oxazolidine-2-carbonyl]piperidin-1-yl]pyrimidin-4-yl]pyrrolidin-2-one] | > 1140 | 18
Cc1ccc([C@@H]2CCON2C(=O)C2CCN(c3ncc(F)c(-c4ccnn4C)n3)CC2)cn1 [Example 19, [1-[5-fluoro-4-(2-methylpyrazol-3-yl)pyrimidin-2-yl]-4-piperidyl]-[(3S)-3-(6-methyl-3-pyridyl)isoxazolidin-2-yl]methanone] | 7.1 (≈ 3.21 µg/mL) | 
Cc1ccc([C@@H]2CCON2C(=O)C2CCN(c3cc(-n4ccnc4C)ncn3)CC23CC3)cn1 (mixture of isomers) [Example 33, [5-[6-(2-methylimidazol-1-yl)pyrimidin-4-yl]-5-azaspiro[2.5]octan-8-yl]-[(3S)-3-(6-methylpyridin-3-yl)-1,2-oxazolidin-2-yl]methanone] | > 1090 | 16.4
Cc1nc([C@@H]2CCON2C(=O)C2CCN(c3cc(-c4ncnn4C)ncn3)CC2)cs1 [Example 40, [(3S)-3-(2-methyl-1,3-thiazol-4-yl)-1,2-oxazolidin-2-yl]-[1-[6-(2-methyl-1,2,4-triazol-3-yl)pyrimidin-4-yl]piperidin-4-yl]methanone] | 136 (≈ 60 µg/mL) | 40
O=C1CCCCN1c1ccnc(N2CCC(C(=O)N3OCC[C@H]3c3cnccn3)CC2)n1 [Example 47, 1-[2-[4-[(3S)-3-pyrazin-2-yl-1,2-oxazolidine-2-carbonyl]piperidin-1-yl]pyrimidin-4-yl]piperidin-2-one] | > 1140 | 71
Cc1ccc([C@@H]2CCON2C(=O)C2CCN(c3ncnc(-c4ccnn4C)n3)CC2)cn1 [Example 8] | 328 (≈ 142 µg/mL) | 3
Cc1ccc([C@@H]2CCON2C(=O)[C@H]2CCN(c3cc(-n4ccnc4C)ncn3)CC23CC3)cn1 (single isomer, unassigned) [Example 79] | > 1090 | 
Cc1ccc([C@@H]2CCON2C(=O)C2CCN(c3ccnc(N4CCCC4=O)n3)CC2)cn1 [Example 87, 1-[4-[4-[(3S)-3-(6-methylpyridin-3-yl)-1,2-oxazolidine-2-carbonyl]piperidin-1-yl]pyrimidin-2-yl]pyrrolidin-2-one] |  | > 10000
Cc1ncc([C@@H]2CCON2C(=O)C2CCN(c3nccc(N4C(=O)CCC4(C)C)n3)CC2)cc1F [Example 89, 1-[2-[4-[(3S)-3-(5-fluoro-6-methylpyridin-3-yl)-1,2-oxazolidine-2-carbonyl]piperidin-1-yl]pyrimidin-4-yl]-5,5-dimethylpyrrolidin-2-one] |  | 320
Cc1cncc([C@@H]2CCON2C(=O)C2CCN(c3nccc(N4CCC(F)(F)C4=O)n3)CC2)c1 [Example 74, 3,3-difluoro-1-[2-[4-[(3S)-3-(5-methylpyridin-3-yl)-1,2-oxazolidine-2-carbonyl]piperidin-1-yl]pyrimidin-4-yl]pyrrolidin-2-one] |  | 175
Cc1ncc([C@@H]2CCON2C(=O)C2CCN(c3ncc(F)c(N4CCC5(CC5)C4=O)n3)CC2)cc1F [Example 68, 5-[5-fluoro-2-[4-[(3S)-3-(5-fluoro-6-methylpyridin-3-yl)-1,2-oxazolidine-2-carbonyl]piperidin-1-yl]pyrimidin-4-yl]-5-azaspiro[2.4]heptan-4-one] |  | 10000
Cc1ccc([C@@H]2CCON2C(=O)[C@H]2CCN(c3cc(-c4ccnn4C)ncn3)CC23CC3)cn1 [Example 80, [5-[6-(2-methylpyrazol-3-yl)pyrimidin-4-yl]-5-azaspiro[2.5]octan-8-yl]-[(3S)-3-(6-methylpyridin-3-yl)-1,2-oxazolidin-2-yl]methanone] | > 1090 | 
Cc1ccc([C@@H]2CCON2C(=O)C2CCN(c3ncnc(-n4ccnc4C)n3)CC2)cn1 [Example 35, [1-[4-(2-methylimidazol-1-yl)-1,3,5-triazin-2-yl]piperidin-4-yl]-[(3S)-3-(6-methylpyridin-3-yl)-1,2-oxazolidin-2-yl]methanone] |  | 2
Cc1nccn1-c1nc(N2CCC(C(=O)N3OCC[C@H]3c3cncc(F)c3)CC2)ncc1F [Example 64, [1-[5-fluoro-4-(2-methylimidazol-1-yl)pyrimidin-2-yl]piperidin-4-yl]-[(3S)-3-(5-fluoropyridin-3-yl)-1,2-oxazolidin-2-yl]methanone] |  | 1
Cc1ccc([C@@H]2CCON2C(=O)C2CCN(c3nccc(N4CCCC(F)(F)C4=O)n3)CC2)cn1 [Example 66, 3,3-difluoro-1-[2-[4-[(3S)-3-(6-methylpyridin-3-yl)-1,2-oxazolidine-2-carbonyl]piperidin-1-yl]pyrimidin-4-yl]piperidin-2-one] |  | 3440
Cc1cncc([C@@H]2CCON2C(=O)C2CCN(c3nccc(N4CCC5(CC5)C4=O)n3)CC2)c1 [Example 51, 5-[2-[4-[(3S)-3-(5-methylpyridin-3-yl)-1,2-oxazolidine-2-carbonyl]piperidin-1-yl]pyrimidin-4-yl]-5-azaspiro[2.4]heptan-4-one] |  | 26
Cc1cn(-c2nc(N3CCC(C(=O)N4OCC[C@H]4c4cnccn4)CC3)ncc2F)c(C)n1 [Example 22, [1-[4-(2,4-dimethylimidazol-1-yl)-5-fluoro-pyrimidin-2-yl]-4-piperidyl]-[(3S)-3-pyrazin-2-ylisoxazolidin-2-yl]methanone] |  | 2
O=C(C1CCN(c2nc(-c3ncco3)ncc2F)CC1)N1OCC[C@H]1c1cnccn1 [Example 13, [1-(5-fluoro-2-oxazol-2-yl-pyrimidin-4-yl)-4-piperidyl]-[(3S)-3-pyrazin-2-ylisoxazolidin-2-yl]methanone] |  | 27
Cc1ncc([C@@H]2CCON2C(=O)C2CCN(c3nccc(N4CCC(C)(C)C4=O)n3)CC2)cc1F [Example 60, 1-[2-[4-[(3S)-3-(5-fluoro-6-methylpyridin-3-yl)-1,2-oxazolidine-2-carbonyl]piperidin-1-yl]pyrimidin-4-yl]-3,3-dimethylpyrrolidin-2-one] |  | 506
O=C(C1CCN(c2nccc(N3CCC(F)(F)C3=O)n2)CC1)N1OCC[C@H]1c1cnccn1 [Example 58, 3,3-difluoro-1-[2-[4-[(3S)-3-pyrazin-2-yl-1,2-oxazolidine-2-carbonyl]piperidin-1-yl]pyrimidin-4-yl]pyrrolidin-2-one] |  | 65
Cc1ccc([C@@H]2CCON2C(=O)C2CCN(c3cc(-c4ccnn4C)ncn3)CC2)cn1 [Example 18, [1-[6-(2-methylpyrazol-3-yl)pyrimidin-4-yl]-4-piperidyl]-[(3S)-3-(6-methyl-3-pyridyl)isoxazolidin-2-yl]methanone] |  | 70
